The text below walks through data of patent US6392025B1, “Human NHE3 protein and non-human cells expressing same” (Tranzmembrane, LLC, priority 1995, dated 2002).

pIC50: −log10 of the molar value. “Also recorded” adds a separate entry of the source. Where two headings read alike, the source gives them in different places.

The target of experiment [1] is Rat NHE3 (Rattus norvegicus, UniProt P26433). The conditions noted are these: read-out: Inhibition constants (IC50); cited from earlier work.
Experiment [2] has as its target Rabbit NHE3 (Oryctolagus cuniculus, UniProt P26432). The settings on record: read-out: Inhibition constants (IC50); cited from earlier work.
Experiment [3] addresses T1, human NHE3 (Homo sapiens, UniProt P48764).
T1 construct: expressed in transfected cells; host or cells: PS120 (Na+/H+ exchanger deficient derivative of Chinese hamster lung fibroblast line CCL39), plasmid pEH3 (pECE vector)
T1 sequence (P48764 26-834): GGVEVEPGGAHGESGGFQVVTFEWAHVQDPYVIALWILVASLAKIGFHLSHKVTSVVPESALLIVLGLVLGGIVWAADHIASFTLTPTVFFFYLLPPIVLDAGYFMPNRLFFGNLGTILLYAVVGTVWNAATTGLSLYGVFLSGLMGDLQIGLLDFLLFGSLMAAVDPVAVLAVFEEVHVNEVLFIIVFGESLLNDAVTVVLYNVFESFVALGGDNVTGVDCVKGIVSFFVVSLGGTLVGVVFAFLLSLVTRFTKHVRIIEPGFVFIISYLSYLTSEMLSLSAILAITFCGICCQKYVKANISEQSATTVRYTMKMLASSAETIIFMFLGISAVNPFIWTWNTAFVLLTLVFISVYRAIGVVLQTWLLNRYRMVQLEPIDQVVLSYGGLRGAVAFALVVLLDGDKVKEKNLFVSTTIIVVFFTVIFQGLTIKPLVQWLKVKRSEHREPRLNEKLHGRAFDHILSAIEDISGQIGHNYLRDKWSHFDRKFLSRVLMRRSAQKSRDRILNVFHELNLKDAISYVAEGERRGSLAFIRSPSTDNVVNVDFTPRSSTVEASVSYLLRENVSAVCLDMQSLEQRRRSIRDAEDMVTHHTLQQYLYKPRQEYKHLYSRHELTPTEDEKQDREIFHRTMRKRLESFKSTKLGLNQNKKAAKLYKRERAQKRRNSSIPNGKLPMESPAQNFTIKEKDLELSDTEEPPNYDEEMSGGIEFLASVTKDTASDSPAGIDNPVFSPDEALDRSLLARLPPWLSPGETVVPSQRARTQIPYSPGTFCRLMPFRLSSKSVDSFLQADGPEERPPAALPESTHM
Kind of experiment: 22Na+ uptake in acid loaded HNHE3/PS120 cells. The class given is cell-based. The conditions noted are these: 22Na+ 1 mM. The procedure:
Stably transfected HNHE3/PS 120 cells were grown to near confluency in 24-well plates. The cells were serum-starved for 24 hours to arrest growth. ^22Na^+ uptake (1 mM) was measured during the linear phase of uptake in the presence of 1 mM ouabain and various concentrations of potential inhibitors amiloride or ethylisopropylamiloride (EIPA) following acidification with NH4Cl prepulse, as detailed previously (30).
Human brush border epithelial Na^+/H^+ exchange has been characterized as being much less sensitive to inhibition by amiloride and its 5-amino-substituted analogues than basolateral and nonepithelial membrane Na^+/H^+ exchangers (10,24,36). Therefore we determined the quantitative sensitivity of HNHE3/PS120 cells to inhibition by amiloride and EIPA by ^22Na^+ uptake studies. The concentration dependence for amiloride and EIPA inhibition of the initial rate of ^22Na^+ uptake (1 mM) into acid loaded HNHE3/PS120 cells was determined.
Three independent experiments were performed. […] FIG. 6 provides curves are from a representative experiment. Each point represents the mean percent of control ^22Na^+ uptake of duplicate experiments for each concentration of inhibitor. The curves are nonlinear least squares fits of the data assuming a single binding site for the inhibition (GraphPAD Software, Inc., San Diego, Calif.).

Experiment [4] concerns the target T1, human NHE3. Kind of experiment: Na+/H+ exchange activity by BCECF fluorescence (pHi) in HNHE3/PS120 cells. The class given is cell-based. The procedure: HNHE3/PS120 cells were grown to 70-80% confluency on glass coverslips, serum starved overnight to arrest growth, washed with Na^+ medium (containing in mM: 130 NaCl, 5 KCl, 2 CaCl2, 1 MgSO4, 1 NaPO4, 25 glucose, 20 HEPES, pH 7.4) and loaded with the acetoxymethyl ester of 2′,7′-bis(2-carboxyethyl)-5-(and-6)carboxyfluorescein (BCECF) as previously discussed (31). Cells were washed with TMA medium (containing in mM: 130 tetramethylammonium-C1, 5 KCl, 2 CaCl2 1 MgSO4, 1 TMA-P04, 25 glucose, 20 HEPES, pH 7.4), mounted in a cuvette, and perfused at 37° C. Cells were acidified by perfusing with 30 mM NH4Cl prepulse followed by removal of NH4Cl with TMA medium. The cuvette was then perfused with Na^+ medium. […] Na^+/H^+ exchange was determined by multiplying the initial rate of Na^+ dependent alkalinization by intracellular buffering capacity, as described.
HNHE3/PS120 cells loaded with BCECF were acidified by NH4Cl prepulse.
Serum starved HNHE3/PS120 cells were acidified by a NH4Cl prepulse and allowed to recover in 130 mM Na^+ medium until steady-state pHi was obtained.

Setting [5] is: mean of three independent experiments, read-out: Inhibition constants (IC50) of 22Na+ uptake, mean.
Setting [6] is: single representative experiment, nonlinear least squares fit, read-out: IC50 of the representative curves (FIG. 6).

Rabbit NHE3, sequence (P26432 30-832): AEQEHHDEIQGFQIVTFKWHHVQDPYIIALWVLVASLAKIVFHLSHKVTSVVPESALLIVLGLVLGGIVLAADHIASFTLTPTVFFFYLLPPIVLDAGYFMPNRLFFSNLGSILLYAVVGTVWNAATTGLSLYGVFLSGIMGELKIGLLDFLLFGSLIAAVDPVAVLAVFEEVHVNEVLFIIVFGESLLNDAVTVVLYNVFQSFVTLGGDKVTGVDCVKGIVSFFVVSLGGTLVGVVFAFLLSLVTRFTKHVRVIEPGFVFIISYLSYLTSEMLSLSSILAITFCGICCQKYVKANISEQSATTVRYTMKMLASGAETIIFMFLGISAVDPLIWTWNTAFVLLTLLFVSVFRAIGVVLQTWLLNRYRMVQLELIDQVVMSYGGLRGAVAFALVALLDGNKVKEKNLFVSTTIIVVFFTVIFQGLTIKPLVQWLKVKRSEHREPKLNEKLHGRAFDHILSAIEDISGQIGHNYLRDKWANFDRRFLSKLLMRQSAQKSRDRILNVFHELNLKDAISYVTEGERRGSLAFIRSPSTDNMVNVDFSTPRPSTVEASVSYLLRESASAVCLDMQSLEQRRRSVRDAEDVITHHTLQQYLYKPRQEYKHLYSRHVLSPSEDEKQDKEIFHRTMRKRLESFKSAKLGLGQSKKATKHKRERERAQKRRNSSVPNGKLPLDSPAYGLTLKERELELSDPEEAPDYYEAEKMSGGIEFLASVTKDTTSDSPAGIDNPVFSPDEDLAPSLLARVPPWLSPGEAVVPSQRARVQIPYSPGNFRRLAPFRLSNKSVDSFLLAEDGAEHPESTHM
Rat NHE3, sequence (P26433 29-831): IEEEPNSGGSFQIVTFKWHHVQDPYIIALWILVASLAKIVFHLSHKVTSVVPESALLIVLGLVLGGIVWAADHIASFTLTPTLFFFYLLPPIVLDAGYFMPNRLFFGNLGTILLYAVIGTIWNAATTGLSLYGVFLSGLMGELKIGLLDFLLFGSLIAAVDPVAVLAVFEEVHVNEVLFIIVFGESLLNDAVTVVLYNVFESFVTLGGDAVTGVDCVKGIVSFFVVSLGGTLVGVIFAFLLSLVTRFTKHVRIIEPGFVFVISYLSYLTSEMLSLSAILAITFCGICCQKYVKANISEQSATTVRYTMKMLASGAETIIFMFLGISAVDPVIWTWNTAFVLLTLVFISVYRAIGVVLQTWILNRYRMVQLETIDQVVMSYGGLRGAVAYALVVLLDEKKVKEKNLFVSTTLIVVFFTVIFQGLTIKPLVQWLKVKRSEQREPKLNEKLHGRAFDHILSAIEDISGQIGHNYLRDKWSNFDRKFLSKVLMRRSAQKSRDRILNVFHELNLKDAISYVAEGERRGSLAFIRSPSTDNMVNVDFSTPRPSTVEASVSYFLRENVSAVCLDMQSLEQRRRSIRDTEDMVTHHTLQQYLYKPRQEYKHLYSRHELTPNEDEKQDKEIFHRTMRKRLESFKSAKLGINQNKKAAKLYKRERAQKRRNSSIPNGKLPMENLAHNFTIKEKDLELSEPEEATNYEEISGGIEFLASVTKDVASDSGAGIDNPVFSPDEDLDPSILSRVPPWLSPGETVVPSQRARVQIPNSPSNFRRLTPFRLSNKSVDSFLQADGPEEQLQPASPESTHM

Consider `N=C(N)NC(=O)c1nc(Cl)c(N)nc1N` [Amiloride, amiloride], for which the pIC50 in experiment [1] is 4.00; in experiment [2] it was 4.41; in experiment [3] (setting [5]) it was 4.31; in experiment [3] (setting [6]) it was 4.23.
For `CCN(c1nc(N)c(C(=O)NC(=N)N)nc1Cl)C(C)C` [Ethylisopropylamiloride, ethylisopropylamiloride], the pIC50 in experiment [1] was 5.62; in experiment [2] it was 5.10; in experiment [3] (setting [5]) it was 5.18; in experiment [3] (setting [6]) it was 5.06.
With `CCCCCCCCCCCCCC(=O)O[C@@H]1[C@@H](C)[C@@]2(O)[C@@H](C=C(CO)C[C@]3(O)C(=O)C(C)=C[C@@H]23)[C@@H]2C(C)(C)[C@]12OC(C)=O` [PMA, phorbol 12-myristate 13-acetate], the “ΔpHi at steady state after addition” value in experiment [4] (FGF 10 ng/ml (n=4) or PMA 1.0 μM (n=5), 130 mM Na+ medium, controls −0.006±0.012) is −0.052±0.006. The “time to reach new steady state pHi (average)” value in experiment [4] (FGF 10 ng/ml or PMA 1.0 μM added at steady-state pHi) is on record as “less than 2 min”. Also, the “effect on human NHE3 Na+/H+ exchange activity (in words)” value in experiment [4] (FGF 10 ng/ml, 8-bromo-cAMP 0.5 mM, PMA 1.0 μM, at steady-state pHi) was “inhibition of the transfected Na^+/H^+ exchanger; also recorded: inhibited”.
